This note sets out measurements from ChEMBL document CHEMBL1817586, “N-(1,3-Diaryl-3-oxopropyl)amides as a new template for xanthine oxidase inhibitors” (Bioorg Med Chem, 2011).

As a reminder, the IC50 is the concentration at which inhibition is half-maximal.

Experiment [1] concerns the target Xanthine dehydrogenase/oxidase (Bos taurus, UniProt P80457). The experiment in a line: Inhibition of bovine milk xanthine oxidase assessed as decrease of uric acid formation preincubated for 5 mins by UV-visible spectrophotometric analysis.
For experiment [2], the system named is Mus musculus. Put plainly: Antihyperuricemic activity in Swiss mouse assessed as decrease of potassium oxonate-induced uric acid level in serum at 10 mg/kg, ip after 3 hrs by HPLC analysis (reference value: 7.80 +/- 0.34 uM). As to conditions: route intraperitoneal. It is filed as functional.
In experiment [3] the test system is Mus musculus. Put plainly: Antihyperuricemic activity in Swiss mouse assessed as decrease of potassium oxonate-induced uric acid level in serum at 50 mg/kg, ip after 3 hrs by HPLC analysis (reference value: 7.80 +/- 0.34 uM). The class given is functional. As to conditions: route intraperitoneal.
Experiment [4] deals with Mus musculus. The experiment in a line: Antihyperuricemic activity in Swiss mouse assessed as decrease of potassium oxonate-induced uric acid level in serum at 20 mg/kg, ip after 3 hrs by HPLC analysis (reference value: 7.80 +/- 0.34 uM). The class given is functional. As to conditions: route intraperitoneal.

Chain of Xanthine dehydrogenase/oxidase (P80457 whole entry): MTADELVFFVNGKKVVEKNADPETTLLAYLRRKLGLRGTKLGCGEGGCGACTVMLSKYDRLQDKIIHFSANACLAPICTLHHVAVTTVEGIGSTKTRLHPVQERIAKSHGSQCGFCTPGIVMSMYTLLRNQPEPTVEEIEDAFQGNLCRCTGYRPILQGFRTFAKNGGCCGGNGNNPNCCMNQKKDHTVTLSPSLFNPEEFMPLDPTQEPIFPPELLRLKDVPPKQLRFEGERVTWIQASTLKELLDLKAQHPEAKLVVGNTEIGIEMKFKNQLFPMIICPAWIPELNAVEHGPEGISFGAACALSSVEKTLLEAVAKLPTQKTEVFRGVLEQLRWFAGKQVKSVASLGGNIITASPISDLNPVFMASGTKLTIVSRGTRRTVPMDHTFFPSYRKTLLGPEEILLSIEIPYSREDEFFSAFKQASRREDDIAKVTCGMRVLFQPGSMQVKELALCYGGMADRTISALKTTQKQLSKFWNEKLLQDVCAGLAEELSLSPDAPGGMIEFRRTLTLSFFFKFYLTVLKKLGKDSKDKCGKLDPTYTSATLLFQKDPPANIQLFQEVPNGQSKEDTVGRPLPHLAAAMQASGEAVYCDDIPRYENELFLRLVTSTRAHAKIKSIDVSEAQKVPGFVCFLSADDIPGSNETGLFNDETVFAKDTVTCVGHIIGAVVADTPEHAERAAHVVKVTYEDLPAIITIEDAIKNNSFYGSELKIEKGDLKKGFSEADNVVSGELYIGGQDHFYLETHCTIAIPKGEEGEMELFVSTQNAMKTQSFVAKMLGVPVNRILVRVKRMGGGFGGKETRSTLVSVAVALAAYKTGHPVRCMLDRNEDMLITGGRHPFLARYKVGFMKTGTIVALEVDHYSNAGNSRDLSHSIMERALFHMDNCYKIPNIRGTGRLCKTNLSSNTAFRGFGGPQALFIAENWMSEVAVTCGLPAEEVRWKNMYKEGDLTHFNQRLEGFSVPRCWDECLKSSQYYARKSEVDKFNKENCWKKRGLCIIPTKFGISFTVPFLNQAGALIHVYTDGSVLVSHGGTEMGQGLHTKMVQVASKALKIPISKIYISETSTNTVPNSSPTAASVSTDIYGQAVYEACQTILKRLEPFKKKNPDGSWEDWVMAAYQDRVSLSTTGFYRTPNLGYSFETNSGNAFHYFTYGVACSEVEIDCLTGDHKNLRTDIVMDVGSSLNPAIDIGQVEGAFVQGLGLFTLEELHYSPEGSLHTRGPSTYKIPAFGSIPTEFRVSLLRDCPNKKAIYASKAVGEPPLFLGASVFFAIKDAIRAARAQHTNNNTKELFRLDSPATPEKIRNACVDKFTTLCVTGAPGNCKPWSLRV

Consider `CC(=O)Nc1cccc(C(=O)CC(NC(C)=O)c2cccc([N+](=O)[O-])c2)c1` (centres undefined), for which the concentration for half-maximal inhibition (IC50) in experiment [1] was 32 µM. With `CC(=O)NC(CC(=O)c1cccs1)c1ccccc1` (centres undefined), in experiment [1], the IC50 worked out at 27 µM. In the case of `COc1cc(C(CC(=O)c2ccccc2)NC(C)=O)cc(OC)c1OC` (centres undefined), the IC50 in experiment [1] is 48.2 µM. `CC(=O)NC(CC(=O)c1ccccc1)c1cccc([N+](=O)[O-])c1` (centres undefined): the IC50 in experiment [1] came out at 26.2 µM.

Turning to `CC(=O)NC(CC(=O)c1ccccc1)c1ccc(C#N)cc1` (centres undefined), the IC50 in experiment [1] stood at 29 µM. On to `CC(=O)NC(CC(=O)c1cc(C)sc1C)c1ccc(Cl)cc1` (centres undefined), for which the IC50 in experiment [1] worked out at 21.7 µM. Still for that read-out and setting: next, `CC(=O)NC(CC(=O)c1ccccc1)c1cccc(Br)c1` (centres undefined): 28.1 µM. In the case of `CC(=O)NC(/C=C/c1ccccc1)CC(=O)c1ccccc1` (centres undefined), the IC50 in experiment [1] came out at 78.3 µM. As to `CC(=O)NC(CC(=O)c1ccccc1)c1ccc(Cl)cc1` (centres undefined), the IC50 in experiment [1] amounted to 27.1 µM. The same measure, in the same setting: next, `O=C(CC(NC(=O)c1ccccc1)c1cccc([N+](=O)[O-])c1)c1ccccc1` (centres undefined): 43.6 µM; `CC(=O)Nc1cccc(C(=O)CC(NC(C)=O)c2ccc(Cl)cc2)c1` (centres undefined): 41.8 µM.

With `CC(=O)NC(CC(=O)c1ccccc1)c1ccc2ccccc2c1` (centres undefined), the IC50 in experiment [1] worked out at 53 µM. On to `CC(=O)NC(CC(=O)c1cc(C)sc1C)c1cccc([N+](=O)[O-])c1` (centres undefined), for which the IC50 in experiment [1] came to 19.8 µM. `CC(=O)Nc1cccc(C(=O)CC(/C=C/c2ccccc2)NC(C)=O)c1` (centres undefined): in experiment [1], the 50% inhibitory concentration (IC50) was found to be 69.2 µM. `CC(=O)NC(CC(=O)c1ccccc1)c1cccc2ccccc12` (centres undefined): in experiment [1], the IC50 amounted to 59 µM.

Turning to `CC(=O)NC(CC(=O)c1ccccc1)c1ccccc1` (centres undefined), the IC50 in experiment [1] stood at 38.3 µM. On to `COc1ccc(C(CC(=O)c2ccc([N+](=O)[O-])cc2)NC(C)=O)cc1` (centres undefined), for which, in experiment [1], the IC50 stood at 52.6 µM. Consider `CC(=O)NC(CC(=O)c1ccc(Cl)cc1)c1ccc(Cl)cc1` (centres undefined), for which, in experiment [1], the IC50 came out at 41 µM. With `CC(=O)NC(CC(=O)c1cccc2ccccc12)c1ccccc1` (centres undefined), in experiment [1], the IC50 was determined as 40 µM.

On to `Oc1ncnc2[nH]ncc12` [ALLOPURINOL], for which the Activity came to 3.19 µM in the experiment on Mus musculus [2], 2.17 µM in the experiment on Mus musculus [3] and 2.93 µM in the experiment on Mus musculus [4]. Regarding `COc1ccc(C(CC(=O)c2ccccc2)NC(C)=O)c(OC)c1OC` (centres undefined), the IC50 in experiment [1] came to 46.1 µM. With `CC(=O)NC(CC(=O)c1ccc(Cl)cc1)c1ccccc1` (centres undefined), in experiment [1], the IC50 came to 42 µM. Take `CC(=O)NC(CC(=O)c1ccc2ccccc2c1)c1cccc(Br)c1` (centres undefined): the IC50 in experiment [1] stood at 2.45 µM. For the same compound, the results for the Activity with Mus musculus [2], with Mus musculus [3] and in the experiment on Mus musculus [4] were 3.21 µM, 2.18 µM and 2.96 µM, respectively. `CC(=O)NC(CC(=O)c1ccco1)c1ccccc1` (centres undefined): the IC50 in experiment [1] was 26 µM. Regarding `COc1ccc(C(CC(=O)c2ccccc2)NC(C)=O)cc1OC` (centres undefined), the IC50 in experiment [1] was 44.3 µM. Regarding `CC(=O)NC(CC(=O)c1cc(Cl)cs1)c1ccc(Cl)cc1` (centres undefined), in experiment [1], the half-maximal inhibitory concentration (IC50) is 22 µM.

On to `O=C(CC(NC(=O)c1ccccc1)c1ccccc1)c1ccccc1` (centres undefined), for which the IC50 in experiment [1] was 58.1 µM. As to `CC(=O)NC(CC(=O)c1ccc(Cl)cc1)c1ccc(C)cc1` (centres undefined), in experiment [1], the IC50 was determined as 44.6 µM. On to `COc1ccc(OC)c(C(CC(=O)c2ccccc2)NC(C)=O)c1` (centres undefined), for which, in experiment [1], the IC50 amounted to 44 µM. For `CC(=O)NC(CC(=O)c1ccco1)c1cccc([N+](=O)[O-])c1` (centres undefined), the IC50 in experiment [1] is 15.2 µM. For the same compound, the Activity turned out to be 7.13 µM in the experiment with Mus musculus [2], 6.98 µM with Mus musculus [3] and 7.01 µM in the experiment with Mus musculus [4]. Turning to `CC(=O)NC(CC(=O)c1ccccc1)c1ccc([N+](=O)[O-])cc1` (centres undefined), the IC50 in experiment [1] worked out at 28.5 µM.

For the compound `CC(=O)NC(CC(=O)c1ccc([N+](=O)[O-])cc1)c1ccc(Cl)cc1` (centres undefined), in experiment [1], the IC50 came out at 45.4 µM. Same read-out and setting: next, `COc1ccc(OC)c(C(CC(=O)c2cccc(NC(C)=O)c2)NC(C)=O)c1` (centres undefined): 43.2 µM; `CC(=O)NC(CC(=O)c1ccccc1)c1ccccc1[N+](=O)[O-]` (centres undefined): 32.3 µM. For `COc1ccc(OC)c(C(CC(=O)c2cc(Cl)cs2)NC(C)=O)c1` (centres undefined), the IC50 in experiment [1] is 20 µM. The same measure, in the same setting: the same measure for `CC(=O)NC(CC(=O)c1cccc2ccccc12)c1cccc(Br)c1` (centres undefined): 42.2 µM; for `COc1ccc(C(CC(=O)c2ccccc2)NC(C)=O)cc1` (centres undefined): 45 µM; for `CC(=O)NC(CC(=O)c1ccc([N+](=O)[O-])cc1)c1ccccc1` (centres undefined): 48 µM. Consider `CC(=O)NC(CC(=O)c1cccc2ccccc12)c1cccc([N+](=O)[O-])c1` (centres undefined), for which the IC50 in experiment [1] was determined as 44 µM. For `CC(=O)NC(CC(=O)c1ccc2ccccc2c1)c1ccccc1` (centres undefined), the IC50 in experiment [1] is 8.5 µM. Also, the figures for the Activity in the experiment with Mus musculus [2], in the experiment with Mus musculus [3] and with Mus musculus [4] were 4.26 µM, 4.14 µM and 4.22 µM, respectively.

In the case of `CC(=O)NC(CC(=O)c1ccccc1)c1cccs1` (centres undefined), the IC50 in experiment [1] worked out at 65 µM. In the case of `CC(=O)NC(CC(=O)c1ccccc1)c1ccco1` (centres undefined), the IC50 in experiment [1] worked out at 63 µM. In the case of `C[N+](=O)C(CC(=O)c1ccccc1)c1c2ccccc2cc2ccccc12` (centres undefined), the IC50 in experiment [1] worked out at 91.6 µM.
